Reference: patent publication US11001570B2, “6-amino-quinolinone compounds and derivatives as BCL6 inhibitors” (Boehringer Ingelheim International GmbH, priority 2016, dated 2021)

biological target: T1, BCL6::BCOR (Homo sapiens, UniProt P41182, C67R/C84N/C8Q); assay: BCL6::BCOR ULight TR-FRET assay; assay type: binding
T1 construct: BCL6 (amino acids 5 to 129, with the following changes to the natural protein); made in house; host or cells: E. coli
Excerpt: Biological Methods BCL6::BCOR ULight TR-FRET Assay:
Biotinylated BCL6 protein corresponding to BCL6 (amino acids 5 to 129, with the following changes to the natural protein: C8Q, C67R, C84N) is expressed in E. coli with a carboxy-terminal Avi tag (amino acid sequence […]). The BCOR ULight peptide uses a direct carboxy-terminal ULight tag (PerkinElmer). The sequence of the peptide is CRSEIISTAPSSWVVPGP, with the amino terminus acetylated and the ULight tag attached to the cysteine. Compounds are dispensed onto assay plates (Proxiplate 384 PLUS, white, PerkinElmer) using an Access Labcyte Workstation with the Labcyte Echo 55×from a DMSO solution. For the chosen highest assay concentration of 100 μM, 150 nl of compound solution are transferred from a 10 mM DMSO compound stock solution. A series of 11 concentrations is transferred for each compound at which each concentration is fivefold lower than the previous one. DMSO is added such that every well has a total of 150 nl compound solution. 5 μL of 1 nM BCL6 protein in assay buffer (50 mM HEPES pH 7.3; 125 mM NaCl; 1 mM GSH; 0.01% Triton-X 100; 0.03% BSA) are added to the 150 nl of compounds. After 30 minutes incubation time at room temperature, 10 μL of a mix containing BCOR ULight peptide (100 nM final assay concentration) and Streptavidin-Europium (0.75 nM final assay concentration) are added. Plates are kept at room temperature. After 240 minutes incubation time the TR-FRET signal is measured in a PerkinElmer Envision HTS Multilabel Reader using the TR-FRET LANCE Ultra specs of PerkinElmer. Each plate contains negative controls (diluted DMSO instead of test compound; BCOR peptide and Streptavidin Europium mix with BCL6 protein) and positive controls (diluted DMSO instead of test compound; BCOR peptide and Streptavidin-Europium mix without BCL6 protein). Negative and positive control values are used for normalization.

First: CNC(=O)COc1cc2cc(Nc3nc(N4CCC(CN5CCOCC5)CC4)ncc3Cl)ccc2n(C)c1=O [Compound I-44]
Second: CNC(=O)COc1cc2cc(Nc3nc(N4CCOCC4)ncc3Cl)ccc2n(C)c1=O [Compound I-54]
The IC50 of the first is 1.8-fold higher: 9 nM for the first, 5 nM for the second. The second is the more potent here.

`CNC(=O)COc1cc2cc(Nc3nc(N4CCC(N(C)C)CC4)ncc3Cl)ccc2n(C)c1=O` [Compound I-45] and `CNC(=O)COc1cc2cc(Nc3nc(N4CCC(N(C)CC(F)(F)F)CC4)ncc3Cl)ccc2n(C)c1=O` [Compound I-58] are the same in IC50: 7 nM for the first, 7 nM for the second.

Compared with `CNC(=O)COc1cc2cc(Nc3nc(N4CCCN(C)CC4)ncc3Cl)ccc2n(C)c1=O` [Compound I-46], `CNC(=O)COc1cc2cc(Nc3nc(N4CCCC(F)CC4)ncc3Cl)ccc2n(C)c1=O` (centres unmarked) [Compound I-55] is 2.6-fold lower in IC50: 13 nM for the first, 5 nM for the second. The second is the more potent here.

`CNC(=O)COc1cc2cc(Nc3nc(N4CCc5cnccc5C4)ncc3Cl)ccc2n(C)c1=O` [Compound I-47] and `CNC(=O)COc1cc2cc(Nc3nc(N4CCc5cn[nH]c5C4)ncc3Cl)ccc2n(C)c1=O` [Compound I-67] are the same in IC50: 5 nM for the first, 5 nM for the second.

First: CNC(=O)COc1cc2cc(Nc3nc(N4C[C@@H](C)N(C)[C@@H](C)C4)ncc3Cl)ccc2n(C)c1=O [Compound I-48]
Second: CNC(=O)COc1cc2cc(Nc3nc(N4C[C@@H](C)O[C@@H](C)C4)ncc3Cl)ccc2n(C)c1=O [Compound I-53]
The IC50 of the first is 1.8-fold higher: 11 nM for the first, 6 nM for the second. The second is the more potent here.

Compared with `CNC(=O)COc1cc2cc(Nc3nc(N4CCN(C)C(C)(C)C4)ncc3Cl)ccc2n(C)c1=O` [Compound I-49], `CNC(=O)COc1cc2cc(Nc3nc(N4CCOC(C)(C)C4)ncc3Cl)ccc2n(C)c1=O` [Compound I-50] is 2.2-fold lower in IC50: 11 nM for the first, 5 nM for the second.

`CNC(=O)COc1cc2cc(Nc3nc(N4CCO[C@@H](C)C4)ncc3Cl)ccc2n(C)c1=O` [Compound I-51] and `CNC(=O)COc1cc2cc(Nc3nc(N4CCO[C@H](C)C4)ncc3Cl)ccc2n(C)c1=O` [Compound I-52] are within 1.5-fold of each other in IC50: 6 nM for the first, 7 nM for the second.

`CNC(=O)COc1cc2cc(Nc3nc(N4CCC(C(C)(C)C(=O)O)CC4)ncc3Cl)ccc2n(C)c1=O` [Compound I-56] and `CNC(=O)COc1cc2cc(Nc3nc(N4CCC(C(=O)O)CC4)ncc3Cl)ccc2n(C)c1=O` [Compound I-62] are the same in IC50: 4 nM for the first, 4 nM for the second.

Compared with `CNC(=O)COc1cc2cc(Nc3nc(N4CCC(N5C[C@H]6CC[C@@H](C5)O6)CC4)ncc3Cl)ccc2n(C)c1=O` [Compound I-57], `CNC(=O)COc1cc2cc(Nc3nc(N4CCC(N5CC6CCC5CC6)CC4)ncc3Cl)ccc2n(C)c1=O` [Compound I-59] is 1.8-fold higher in IC50: 6 nM for the first, 11 nM for the second. The first is the more potent here.

Compared with `CNC(=O)COc1cc2cc(Nc3nc(N4CC5CC4CC5(F)F)ncc3Cl)ccc2n(C)c1=O` (centres unmarked) [Compound I-60], `CNC(=O)COc1cc2cc(Nc3nc(N4C[C@H](F)C[C@@H](F)C4)ncc3Cl)ccc2n(C)c1=O` [Compound I-64] is 1.5-fold higher in IC50: 6 nM for the first, 9 nM for the second.

`CNC(=O)COc1cc2cc(Nc3nc(N4CCN(CC(=O)O)C(=O)C4)ncc3Cl)ccc2n(C)c1=O` [Compound I-61] and `CNC(=O)COc1cc2cc(Nc3nc(N4CCN(CCC(=O)O)C(=O)C4)ncc3Cl)ccc2n(C)c1=O` [Compound I-92] are within 1.5-fold of each other in IC50: 4 nM for the first, 5 nM for the second.

`CNC(=O)COc1cc2cc(Nc3nc(N4CCN(CC(=O)O)CC4)ncc3Cl)ccc2n(C)c1=O` [Compound I-63] and `CNC(=O)COc1cc2cc(Nc3nc(N4CCN(CCC(=O)O)CC4)ncc3Cl)ccc2n(C)c1=O` [Compound I-91] are within 1.5-fold of each other in IC50: 8 nM for the first, 7 nM for the second.

Compared with `CNC(=O)COc1cc2cc(Nc3nc(N4C[C@H](F)C[C@H](F)C4)ncc3Cl)ccc2n(C)c1=O` [Compound I-65], `CNC(=O)COc1cc2cc(Nc3nc(N4CC5CCCC5C4)ncc3Cl)ccc2n(C)c1=O` (centres unmarked) [Compound I-72] is 2.6-fold lower in IC50: 23 nM for the first, 9 nM for the second.

`CNC(=O)COc1cc2cc(Nc3nc(N4CCC[C@H](C)C4)ncc3Cl)ccc2n(C)c1=O` [Compound I-66] and `CNC(=O)COc1cc2cc(Nc3nc(N4CCC[C@@H](C)C4)ncc3Cl)ccc2n(C)c1=O` [Compound I-70] are within 1.5-fold of each other in IC50: 5 nM for the first, 7 nM for the second.

`CNC(=O)COc1cc2cc(Nc3nc(N4CCc5cnn(C)c5C4)ncc3Cl)ccc2n(C)c1=O` [Compound I-68] and `CNC(=O)COc1cc2cc(Nc3nc(N4CCCC(C)(C)C4)ncc3Cl)ccc2n(C)c1=O` [Compound I-71] are within 1.5-fold of each other in IC50: 7 nM for the first, 9 nM for the second.

Compared with `CNC(=O)COc1cc2cc(Nc3nc(N4CCCC(C)(C#N)C4)ncc3Cl)ccc2n(C)c1=O` (centres unmarked) [Compound I-69], `CCn1c(=O)c(OCC(=O)NC)cc2cc(Nc3nc(N4CCC[C@@H](C)C4)ncc3Cl)ccc21` [Compound I-77] is 2.9-fold lower in IC50: 23 nM for the first, 8 nM for the second.

`CCn1c(=O)c(OCC(=O)NC)cc2cc(Nc3nc(N4CCC(C(=O)O)CC4)ncc3Cl)ccc21` [Compound I-73] and `CCCn1c(=O)c(OCC(=O)NC)cc2cc(Nc3nc(N4CCC(C(=O)O)CC4)ncc3Cl)ccc21` [Compound I-78] are the same in IC50: 4 nM for the first, 4 nM for the second.

Going from `CCn1c(=O)c(OCC(=O)NC)cc2cc(Nc3nc(N4C[C@H](C)C[C@H](C)C4)ncc3Cl)ccc21` [Compound I-74] to `CCCn1c(=O)c(OCC(=O)NC)cc2cc(Nc3nc(N4C[C@H](C)C[C@H](C)C4)ncc3Cl)ccc21` [Compound I-79], the IC50 rises from 5 nM to 11 nM (2.2-fold).

`CCn1c(=O)c(OCC(=O)NC)cc2cc(Nc3nc(N4CCC(F)CC4)ncc3Cl)ccc21` [Compound I-75] and `CCCn1c(=O)c(OCC(=O)NC)cc2cc(Nc3nc(N4CCC(F)CC4)ncc3Cl)ccc21` [Compound I-80] are within 1.5-fold of each other in IC50: 5 nM for the first, 7 nM for the second.

`CCn1c(=O)c(OCC(=O)NC)cc2cc(Nc3nc(N4CCC(F)(F)CC4)ncc3Cl)ccc21` [Compound I-76] and `CCCn1c(=O)c(OCC(=O)NC)cc2cc(Nc3nc(N4CCC(F)(F)CC4)ncc3Cl)ccc21` [Compound I-81] are within 1.5-fold of each other in IC50: 5 nM for the first, 7 nM for the second.

Compared with `CNC(=O)COc1cc2cc(Nc3nc(N4CCC(C(=O)O)CC4)ncc3Cl)ccc2n(C(C)C)c1=O` [Compound I-82], `CNC(=O)COc1cc2cc(Nc3nc(N4CCC(F)CC4)ncc3Cl)ccc2n(C(C)C)c1=O` [Compound I-84] is 2.5-fold higher in IC50: 4 nM for the first, 10 nM for the second. The first is the more potent here.

`CNC(=O)COc1cc2cc(Nc3nc(N4C[C@H](C)C[C@H](C)C4)ncc3Cl)ccc2n(C(C)C)c1=O` [Compound I-83] and `CNC(=O)COc1cc2cc(Nc3nc(N4C[C@H](C)C[C@H](C)C4)ncc3Cl)ccc2n(CC2CC2)c1=O` [Compound I-87] are within 1.5-fold of each other in IC50: 12 nM for the first, 15 nM for the second.

`CNC(=O)COc1cc2cc(Nc3nc(N4CCC(F)(F)CC4)ncc3Cl)ccc2n(C(C)C)c1=O` [Compound I-85] and `CNC(=O)COc1cc2cc(Nc3nc(N4CCC(F)(F)CC4)ncc3Cl)ccc2n(CC2CC2)c1=O` [Compound I-89] are within 1.5-fold of each other in IC50: 9 nM for the first, 8 nM for the second.

Compared with `CNC(=O)COc1cc2cc(Nc3nc(N4CCC(C(=O)O)CC4)ncc3Cl)ccc2n(CC2CC2)c1=O` [Compound I-86], `CNC(=O)COc1cc2cc(Nc3nc(N4CCC(F)CC4)ncc3Cl)ccc2n(CC2CC2)c1=O` [Compound I-88] is 2-fold higher in IC50: 3 nM for the first, 6 nM for the second. The first is the more potent here.

Going from `CNC(=O)COc1cc2cc(Nc3nc(N4CCC(C(=O)N5CCN(C)CC5)CC4)ncc3Cl)ccc2n(C)c1=O` [Compound I-90] to `CNC(=O)COc1cc2cc(Nc3nc(N4CCC(CC(=O)O)CC4)ncc3Cl)ccc2n(C)c1=O` [Compound I-93], the IC50 falls from 7 nM to 4 nM (1.8-fold). The second is the more potent here.

`CNC(=O)COc1cc2cc(Nc3nc(N4CCC(C(=O)O)CC4)ncc3Cl)cc(OC)c2n(C)c1=O` [Compound I-94] and `CNC(=O)COc1cc2cc(Nc3nc(N4CCC[C@@H](C(=O)O)C4)ncc3Cl)cc(OC)c2n(C)c1=O` [Compound I-95] are the same in IC50: 2 nM for the first, 2 nM for the second.

Compared with `CNC(=O)COc1cc2cc(Nc3nc(N4CCC[C@H](C(=O)O)C4)ncc3Cl)cc(OC)c2n(C)c1=O` [Compound I-96], `CNC(=O)COc1cc2cc(Nc3nc(N4CCC(F)CC4)ncc3Cl)cc(OC)c2n(C)c1=O` [Compound I-98] is 2-fold higher in IC50: 2 nM for the first, 4 nM for the second. The first is the more potent here.

Compared with `CNC(=O)COc1cc2cc(Nc3nc(N4CCC(F)(F)CC4)ncc3Cl)cc(OC)c2n(C)c1=O` [Compound I-97], `CNC(=O)COc1cc2cc(Nc3nc(N4C[C@H](C)C[C@H](C)C4)ncc3Cl)cc(OC)c2n(C)c1=O` [Compound I-99] is 1.8-fold higher in IC50: 4 nM for the first, 7 nM for the second.

First: C[C@@H]1C[C@H](C)CN(c2ncc(F)c(Nc3ccc4c(c3)cc(OCC(=O)O)c(=O)n4C)n2)C1 [Compound I-100]
Second: Cn1c(=O)c(OCC(=O)O)cc2cc(Nc3nc(N4CCC(C(=O)O)CC4)ncc3Cl)ccc21 [Compound I-102]
The IC50 of the first is 1.7-fold higher: 12 nM for the first, 7 nM for the second.

Compared with `Cn1c(=O)c(OCC(=O)O)cc2cc(Nc3nc(N4CCC(Nc5ncccn5)CC4)ncc3Cl)ccc21` [Compound I-101], `Cn1c(=O)c(OCC(=O)O)cc2cc(Nc3nc(N4CCCN(c5ccccc5)CC4)ncc3Cl)ccc21` [Compound I-105] is 11-fold higher in IC50: 10 nM for the first, 114 nM for the second.

`Cn1c(=O)c(OCC(=O)O)cc2cc(Nc3nc(N4CCC5(CC4)OCCCO5)ncc3Cl)ccc21` [Compound I-103] and `CCOC(=O)CC1CCCN(c2ncc(Cl)c(Nc3ccc4c(c3)cc(OCC(=O)O)c(=O)n4C)n2)C1` (centres unmarked) [Compound I-104] are the same in IC50: 10 nM for the first, 10 nM for the second.
